Read-outs that look alike come from different tables or passages of the source.
How the values were obtained:
human 5-HT2A receptor = human 5-HT2A receptor (Homo sapiens (Human), UniProt P28223); assay: Radioligand binding assay, [3H]-ketanserin, human 5-HT2A receptor
In short: (§1)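 Incubation was 1 h at RT, using 1.1 nM [3H]-ketanserin at 5-HT2A or 0.5 nM [3H]-spiperone at D3, on membranes of transiently transfected HEK293 EBNA cells. Nonspecific binding was set with 10 μM unlabelled spiperone.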

human D2 receptor = human D2 receptor (Homo sapiens (Human), UniProt P14416); assay: Radioligand binding assay, [3H]-spiperone, human D2 receptor; settings: membranes of HEK293 EBNA cells expressing human D2; 0.7 nM [3H]-spiperone
In short: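 Competition binding used ~0.7 nM [3H]-spiperone, 1 h at room temperature, pH 7.4 Tris/salt buffer, on transiently transfected HEK293 EBNA membranes bearing human D2.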

human D3 receptor = human D3 receptor (Homo sapiens (Human), UniProt P35462); assay: Radioligand binding assay, [3H]-spiperone, human D3 receptor; settings: membranes of HEK293 EBNA cells expressing human D3; 0.5 nM [3H]-spiperone
In short: as §1

[1] = membranes of HEK293 EBNA cells expressing human 5-HT2A, 1.1 nM [3H]-ketanserin

human D2 receptor, sequence (P14416 whole entry): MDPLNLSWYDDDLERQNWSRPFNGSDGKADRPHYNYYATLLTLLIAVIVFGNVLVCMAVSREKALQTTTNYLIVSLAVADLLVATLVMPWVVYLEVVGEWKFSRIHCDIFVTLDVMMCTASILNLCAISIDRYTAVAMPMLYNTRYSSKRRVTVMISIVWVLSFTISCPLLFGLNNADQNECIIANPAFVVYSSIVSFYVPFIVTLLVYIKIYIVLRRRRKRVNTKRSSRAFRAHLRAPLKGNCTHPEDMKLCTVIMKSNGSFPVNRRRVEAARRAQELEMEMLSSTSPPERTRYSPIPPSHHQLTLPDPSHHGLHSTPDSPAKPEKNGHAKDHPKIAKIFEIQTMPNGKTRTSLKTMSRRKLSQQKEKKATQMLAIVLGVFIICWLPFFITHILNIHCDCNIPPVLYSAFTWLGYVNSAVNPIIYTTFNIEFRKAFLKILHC
human 5-HT2A receptor, sequence (P28223 whole entry): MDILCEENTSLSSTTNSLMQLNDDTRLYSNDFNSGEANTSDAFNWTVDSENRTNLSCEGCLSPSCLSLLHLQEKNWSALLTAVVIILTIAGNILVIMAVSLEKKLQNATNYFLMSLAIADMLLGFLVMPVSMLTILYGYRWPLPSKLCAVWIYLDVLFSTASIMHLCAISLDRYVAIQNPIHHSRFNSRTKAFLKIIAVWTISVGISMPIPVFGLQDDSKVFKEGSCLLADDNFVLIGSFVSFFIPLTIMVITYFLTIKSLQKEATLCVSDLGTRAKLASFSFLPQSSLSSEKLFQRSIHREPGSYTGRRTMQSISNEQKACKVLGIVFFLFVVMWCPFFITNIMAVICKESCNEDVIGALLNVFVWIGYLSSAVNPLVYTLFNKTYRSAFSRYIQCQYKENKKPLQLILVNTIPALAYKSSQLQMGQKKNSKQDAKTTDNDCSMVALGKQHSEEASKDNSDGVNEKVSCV
human D3 receptor, sequence (P35462 whole entry): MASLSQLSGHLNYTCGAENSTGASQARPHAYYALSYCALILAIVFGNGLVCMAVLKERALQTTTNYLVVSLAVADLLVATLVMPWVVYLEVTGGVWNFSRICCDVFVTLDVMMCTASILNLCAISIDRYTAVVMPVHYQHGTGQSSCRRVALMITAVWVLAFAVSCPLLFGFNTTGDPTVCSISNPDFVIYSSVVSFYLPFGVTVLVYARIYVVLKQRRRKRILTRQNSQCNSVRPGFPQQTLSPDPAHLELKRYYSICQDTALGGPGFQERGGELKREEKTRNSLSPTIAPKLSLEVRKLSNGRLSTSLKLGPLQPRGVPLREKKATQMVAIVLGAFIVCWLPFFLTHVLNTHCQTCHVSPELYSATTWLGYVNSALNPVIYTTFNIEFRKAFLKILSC

Compound	Ki (human 5-HT2A receptor; [1]) [nM]	Ki (human D2 receptor) [nM]	melting point [°C]	Ki (human D3 receptor) [nM]	Ki (human 5-HT2A receptor) [nM]
CO[C@H]1CC[C@H](CC(=O)N[C@H]2CC[C@H](CCN3CCN(c4nccc5c4CCO5)CC3)CC2)C1 [Example 90, trans-N-(4-{2-[4-(2,3-Dihydro-furo[3,2-c]pyridin-4-yl)-piperazin-1-yl]-ethyl}-cyclohexyl)-2-((1S,3S)-3-methoxy-cyclopentyl)-acetamide]	22.4	1290	241	19.4	
CC(=O)N[C@H]1CC[C@H](CCN2CCN(c3nccc4c3CCO4)CC2)CC1 [Example 32, trans-N-(4-{2-[4-(2,3-Dihydro-furo[3,2-c]pyridin-4-yl)-piperazin-1-yl]-ethyl}-cyclohexyl)-acetamide]	22.9	770	260	12.7	
O=C(C[C@H]1CCCO1)N[C@H]1CC[C@H](CCN2CCN(c3nccc4c3CCO4)CC2)CC1 [Example 68, trans-N-(4-{2-[4-(2,3-Dihydro-furo[3,2-c]pyridin-4-yl)-piperazin-1-yl]-ethyl}-cyclohexyl)-2-(R)-(tetrahydro-furan-2-yl)-acetamide]		915	183	27.1	14.6
COCCC(=O)N[C@H]1CC[C@H](CCN2CCN(c3nc(C)cc4c3CCO4)CC2)CC1 [Example 103, trans-3-Methoxy-N-(4-{2-[4-(6-methyl-2,3-dihydro-furo[3,2-c]pyridin-4-yl)-piperazin-1-yl]-ethyl}-cyclohexyl)-propionamide]	255	1490	178.5	11.8	
COCCC(=O)N[C@H]1CC[C@H](CCN2CCN(c3nccc4c3CCO4)CC2)CC1 [Example 35, trans-N-(4-{2-[4-(2,3-Dihydrofuro[3,2-c]pyridin-4-yl)-piperazin-1-yl]-ethyl}-cyclohexyl)-3-methoxypropanamide]	24.1	1490	246.5	17.4	
O=CN[C@H]1CC[C@H](CCN2CCN(c3nccc4c3CCO4)CC2)CC1 [Example 83, trans-N-(4-{2-[4-(2,3-Dihydro-furo[3,2-c]pyridin-4-yl)-piperazin-1-yl]-ethyl}-cyclohexyl)-formamide]	23.5	837	170.5	28	
CN1CCN(c2ccc(C(=O)N[C@H]3CC[C@H](CCN4CCN(c5nccc6c5CCO6)CC4)CC3)cc2)CC1 [Example 118, trans-N-(4-{2-[4-(2,3-Dihydro-furo[3,2-c]pyridin-4-yl)-piperazin-1-yl]-ethyl}-cyclohexyl)-4-(4-methyl-piperazin-1-yl)-benzamide]	4.51	180	236	14.7	
CN(C)C(=O)N[C@H]1CC[C@H](CCN2CCN(c3nccc4c3CCO4)CC2)CC1 [Example 78, trans-3-(4-{2-[4-(2,3-Dihydro-furo[3,2-c]pyridin-4-yl)-piperazin-1-yl]-ethyl}-cyclohexyl)-1,1-dimethyl-urea]		322	260	92.8	28.7
O=C(N[C@H]1CC[C@H](CCN2CCN(c3nccc4c3CCO4)CC2)CC1)c1ccccc1 [Example 44, trans-N-(4-{2-[4-(2,3-Dihydro-furo[3,2-c]pyridin-4-yl)-piperazin-1-yl]-ethyl}-cyclohexyl)-benzamide]	7.63	481	207.5	7.66	
O=C(N[C@H]1CC[C@H](CCN2CCN(c3nccc4c3CCO4)CC2)CC1)c1ccc(N2CCOCC2)cc1 [Example 57, trans-N-(4-{2-[4-(2,3-Dihydro-furo[3,2-c]pyridin-4-yl)-piperazin-1-yl]-ethyl}-cyclohexyl)-4-morpholin-4-yl-benzamide]	4.52	867	228.5	16.9	
CC(C)=CC(=O)N[C@H]1CC[C@H](CCN2CCN(c3nccc4c3CCO4)CC2)CC1 [Example 80, 3-Methyl-but-2-enoic acid trans-(4-{2-[4-(2,3-dihydro-furo[3,2-c]pyridin-4-yl)-piperazin-1-yl]-ethyl}-cyclohexyl)-amide]	16.2	198	164.5	15.4	
CC(C)CC(=O)N[C@H]1CC[C@H](CCN2CCN(c3nccc4c3CCO4)CC2)CC1 [Example 71, trans-N-(4-{2-[4-(2,3-Dihydro-furo[3,2-c]pyridin-4-yl)-piperazin-1-yl]-ethyl}-cyclohexyl)-3-methyl-butyramide]	15.7	655	202.5	10.9	
O=C(N[C@H]1CC[C@H](CCN2CCN(c3nccc4c3CCO4)CC2)CC1)C1(O)CC1 [Example 58, 1-Hydroxy-cyclopropanecarboxylic acid trans-(4-{2-[4-(2,3-dihydro-furo[3,2-c]pyridin-4-yl)-piperazin-1-yl]-ethyl}-cyclohexyl)-amide]	5.92	593	174.5	27.1	
O=C(N[C@H]1CC[C@H](CCN2CCN(c3nccc4c3CCO4)CC2)CC1)c1ccc(-c2cccnc2)cc1 [Example 120, trans-N-(4-{2-[4-(2,3-Dihydro-furo[3,2-c]pyridin-4-yl)-piperazin-1-yl]-ethyl}-cyclohexyl)-4-pyridin-3-yl-benzamide]	12.3	223	218	16.1	
Cc1cc(CC(=O)N[C@H]2CC[C@H](CCN3CCN(c4nccc5c4CCO5)CC3)CC2)on1 [Example 84, trans-N-(4-{2-[4-(2,3-Dihydro-furo[3,2-c]pyridin-4-yl)-piperazin-1-yl]-ethyl}-cyclohexyl)-2-(3-methyl-isoxazol-5-yl)-acetamide]	15.2	1300	172.5	4.01	
N#Cc1ccc(C(=O)N[C@H]2CC[C@H](CCN3CCN(c4nccc5c4CCO5)CC3)CC2)cc1 [Example 117, trans-4-Cyano-N-(4-{2-[4-(2,3-dihydro-furo[3,2-c]pyridin-4-yl)-piperazin-1-yl]-ethyl}-cyclohexyl)-benzamide]	13	381	243.5	28	
O=C(N[C@H]1CC[C@H](CCN2CCN(c3nccc4c3CCO4)CC2)CC1)c1ccc(-n2cccn2)cc1 [Example 126, trans-N-(4-{2-[4-(2,3-Dihydro-furo[3,2-c]pyridin-4-yl)-piperazin-1-yl]-ethyl}-cyclohexyl)-4-pyrazol-1-yl-benzamide]	35.9	478	229	44.3	
O=C(Cc1noc2ccccc12)N[C@H]1CC[C@H](CCN2CCN(c3nccc4c3CCO4)CC2)CC1 [Example 129, trans-2-Benzo[d] isoxazol-3-yl-N-(4-{2-[4-(2,3-dihydro-furo[3,2-c]pyridin-4-yl)-piperazin-1-yl]-ethyl}-cyclohexyl)-acetamide]		1310	217.5	14.9	27.8
CN(C)S(=O)(=O)N[C@H]1CC[C@H](CCN2CCN(c3nccc4c3CCO4)CC2)CC1 [Example 66, N′-trans-(4-{2-[4-(2,3-dihydro-furo[3,2-c]pyridin-4-yl)-piperazin-1-yl]-ethyl}-cyclohexyl)-N,N-dimethyl-sulfamide]	11.5	782	139.5	24.9	
O=C(CC1CCC1)N[C@H]1CC[C@H](CCN2CCN(c3nccc4c3CCO4)CC2)CC1 [Example 73, trans-2-Cyclobutyl-N-(4-{2-[4-(2,3-dihydro-furo[3,2-c]pyridin-4-yl)-piperazin-1-yl]-ethyl}-cyclohexyl)-acetamide]	13.3	603	193	8.92	
CC(C)(C)C(=O)N[C@H]1CC[C@H](CCN2CCN(c3nccc4c3CCO4)CC2)CC1 [Example 70, trans-N-(4-{2-[4-(2,3-Dihydro-furo[3,2-c]pyridin-4-yl)-piperazin-1-yl]-ethyl}-cyclohexyl)-2,2-dimethyl-propionamide]		524	185	59.2	9.4
CCCC(=O)N[C@H]1CC[C@H](CCN2CCN(c3nccc4c3CCO4)CC2)CC1 [Example 92, trans-N-(4-{2-[4-(2,3-Dihydro-furo[3,2-c]pyridin-4-yl)-piperazin-1-yl]-ethyl}-cyclohexyl)-butyramide]	23.1	828	191	15.4	
CC(=O)N[C@H]1CC[C@H](CCN2CCN(c3nc(C)cc4c3CCO4)CC2)CC1 [Example 100, trans-N-(4-{2-[4-(6-Methyl-2,3-dihydro-furo[3,2-c]pyridin-4-yl)-piperazin-1-yl]-ethyl}-cyclohexyl)-acetamide]	215	915	217.5	7.58	
O=C(CC1(O)CCC1)N[C@H]1CC[C@H](CCN2CCN(c3nccc4c3CCO4)CC2)CC1 [Example 141, trans-N-(4-{2-[4-(2,3-Dihydro-furo[3,2-c]pyridin-4-yl)-piperazin-1-yl]-ethyl}-cyclohexyl)-2-(1-hydroxy-cyclobutyl)-acetamide]		409	155	25.8	22.5
